Assay results published in ChEMBL document CHEMBL4831506, “Discovery of novel trimethoxyphenylbenzo[d]oxazoles as dual tubulin/PDE4 inhibitors capable of inducing apoptosis at G2/M phase arrest in glioma and lung cancer cells” (Eur J Med Chem, 2021).
Calls of active or inactive are those of the source. The calls are words filed in the database; no cut-off is given here.

Columns and labels:
U-251 [1] = test: Cell cycle arrest in human U-251 cells assessed as G0/G1 phase at 1000 nM measured after 24 hrs by propidium iodide staining based flow cytometry analysis (reference value: 67.34%); assay type: functional
U-251 [2] = test: Induction of apoptosis in human U-251 cells assessed as increase in late apoptotic cells at 1000 nM measured after 24 hrs by PI/FITC analysis (reference value: 0.311%); assay type: functional
MCF7 = test: Antiproliferative activity against human MCF7 cells after 48 hrs by MTT assay; assay type: functional, cell-based; conditions: MCF7, 48 h
A549 [3] = test: Induction of apoptosis in human A549 cells assessed as increase in viable cells at 500 nM measured after 24 hrs by PI/FITC analysis (reference value: 98.4%); assay type: functional
A549 [4] = test: Cell cycle arrest in human A549 cells assessed as G2/M phase at 200 nM measured after 24 hrs by propidium iodide staining based flow cytometry analysis (reference value: 6.08%); assay type: functional
U-251 [5] = test: Cell cycle arrest in human U-251 cells assessed as G0/G1 phase at 200 nM measured after 24 hrs by propidium iodide staining based flow cytometry analysis (reference value: 67.34%); assay type: functional
U-251 [6] = test: Cell cycle arrest in human U-251 cells assessed as G2/M phase at 200 nM measured after 24 hrs by propidium iodide staining based flow cytometry analysis (reference value: 14.43%); assay type: functional
U-251 [7] = test: Induction of apoptosis in human U-251 cells assessed as increase in late apoptotic cells at 500 nM measured after 24 hrs by PI/FITC analysis (reference value: 0.311%); assay type: functional
A549 [8] = test: Induction of apoptosis in human A549 cells assessed as increase in necrotic cells at 50 nM measured after 24 hrs by PI/FITC analysis (reference value: 0.365%); assay type: functional
Sus scrofa [9] = species: Sus scrofa; test: Inhibition of pig brain tubulin polymerization at 10 uM by spectrometric method relative to control; assay type: tissue-based
U-251 [10] = test: Induction of apoptosis in human U-251 cells assessed as increase in necrotic cells at 200 nM measured after 24 hrs by PI/FITC analysis (reference value: 0.301%); assay type: functional
A549 [11] = test: Induction of apoptosis in human A549 cells assessed as increase in late apoptotic cells at 500 nM measured after 24 hrs by PI/FITC analysis (reference value: 0.955%); assay type: functional
U-251 [12] = test: Induction of apoptosis in human U-251 cells assessed as increase in necrotic cells at 1000 nM measured after 24 hrs by PI/FITC analysis (reference value: 0.301%); assay type: functional
U-251 [13] = test: Induction of apoptosis in human U-251 cells assessed as increase in viable cells at 500 nM measured after 24 hrs by PI/FITC analysis (reference value: 98.3%); assay type: functional
U-251 [14] = test: Cell cycle arrest in human U-251 cells assessed as S phase at 1000 nM measured after 24 hrs by propidium iodide staining based flow cytometry analysis (reference value: 18.23%); assay type: functional
U-251 [15] = test: Induction of apoptosis in human U-251 cells assessed as increase in viable cells at 1000 nM measured after 24 hrs by PI/FITC analysis (reference value: 98.3%); assay type: functional
A549 [16] = test: Induction of apoptosis in human A549 cells assessed as increase in late apoptotic cells at 200 nM measured after 24 hrs by PI/FITC analysis (reference value: 0.955%); assay type: functional
U-251 [17] = test: Induction of apoptosis in human U-251 cells assessed as increase in early apoptotic cells at 200 nM measured after 24 hrs by PI/FITC analysis (reference value: 1.12%); assay type: functional
U-251 [18] = test: Induction of apoptosis in human U-251 cells assessed as increase in late apoptotic cells at 200 nM measured after 24 hrs by PI/FITC analysis (reference value: 0.311%); assay type: functional
A549 [19] = test: Induction of apoptosis in human A549 cells assessed as increase in viable cells at 50 nM measured after 24 hrs by PI/FITC analysis (reference value: 98.4%); assay type: functional
U-251 [20] = test: Induction of apoptosis in human U-251 cells assessed as increase in viable cells at 200 nM measured after 24 hrs by PI/FITC analysis (reference value: 98.3%); assay type: functional
Sus scrofa [21] = species: Sus scrofa; test: Inhibition of pig brain tubulin polymerization at 1 uM by spectrometric method relative to control; assay type: tissue-based
A549 [22] = test: Antiproliferative activity against human A549 cells after 48 hrs by MTT assay; assay type: functional, cell-based; conditions: A549, 48 h
U-251 [23] = test: Induction of apoptosis in human U-251 cells assessed as increase in apoptotic cells at 500 nM measured after 24 hrs by PI/FITC analysis (reference value: 2.39%); assay type: functional
U-251 [24] = test: Cell cycle arrest in human U-251 cells assessed as G2/M phase at 1000 nM measured after 24 hrs by propidium iodide based flow cytometry analysis (reference value: 14.43%); assay type: functional
[25] = biological target: 3',5'-cyclic-AMP phosphodiesterase 4C (Homo sapiens, UniProt Q08493); test: Inhibition of PDE4 CAT (unknown origin)
3',5'-cyclic-AMP phosphodiesterase 4C, sequence (Q08493 whole entry): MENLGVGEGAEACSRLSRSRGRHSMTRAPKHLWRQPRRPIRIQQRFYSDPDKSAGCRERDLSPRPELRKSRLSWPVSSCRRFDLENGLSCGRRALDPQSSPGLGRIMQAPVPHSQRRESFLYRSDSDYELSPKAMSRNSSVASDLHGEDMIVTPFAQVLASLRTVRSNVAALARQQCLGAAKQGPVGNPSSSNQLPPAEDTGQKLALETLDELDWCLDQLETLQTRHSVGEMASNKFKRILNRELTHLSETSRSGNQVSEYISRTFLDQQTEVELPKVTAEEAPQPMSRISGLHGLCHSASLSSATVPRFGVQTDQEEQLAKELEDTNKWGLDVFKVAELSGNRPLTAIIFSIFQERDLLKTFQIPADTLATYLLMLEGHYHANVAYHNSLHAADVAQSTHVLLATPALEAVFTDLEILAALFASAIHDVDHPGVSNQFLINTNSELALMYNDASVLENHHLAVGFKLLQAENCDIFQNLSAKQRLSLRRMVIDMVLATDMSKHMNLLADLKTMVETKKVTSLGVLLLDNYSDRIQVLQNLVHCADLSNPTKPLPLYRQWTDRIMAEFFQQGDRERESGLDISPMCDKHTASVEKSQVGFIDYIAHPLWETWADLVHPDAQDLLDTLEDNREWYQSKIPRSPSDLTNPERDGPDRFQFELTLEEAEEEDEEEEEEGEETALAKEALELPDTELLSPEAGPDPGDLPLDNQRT

A549 [26] = test: Cell cycle arrest in human A549 cells assessed as G0/G1 phase at 50 nM measured after 24 hrs by propidium iodide staining based flow cytometry analysis (reference value: 79.14%); assay type: functional
Tubulin (Homo sapiens) = Tubulin (Homo sapiens) (UniProt P68371+Q9H4B7+P0DPH7+P68366+Q13509+Q71U36+P04350+Q3ZCM7+P07437+P68363+Q9BQE3+Q6PEY2+Q13885+Q9BVA1+Q9BUF5); test: Inhibition of tubulin assembly in human A549 cells measured after 24 hrs; assay type: cell-based
A549 [27] = test: Cell cycle arrest in human A549 cells assessed as decrease in cdc25C expression by Western blot analysis; assay type: functional, cell-based; conditions: dose 50-500 nM
A549 [28] = test: Cell cycle arrest in human A549 cells assessed as S phase at 50 nM measured after 24 hrs by propidium iodide staining based flow cytometry analysis (reference value: 14.78%); assay type: functional
NCI-H460 = test: Antiproliferative activity against human NCI-H460 cells after 48 hrs by MTT assay; assay type: functional, cell-based; conditions: NCI-H460, 48 h
U-251 [29] = test: Cell cycle arrest in human U-251 cells assessed as S phase at 200 nM measured after 24 hrs by propidium iodide staining based flow cytometry analysis (reference value: 18.23%); assay type: functional
A549 [30] = test: Cell cycle arrest in human A549 cells assessed as G2/M phase at 50 nM measured after 24 hrs by propidium iodide staining based flow cytometry analysis (reference value: 6.08%); assay type: functional
U-251 [31] = test: Induction of apoptosis in human U-251 cells assessed as increase in early apoptotic cells at 1000 nM measured after 24 hrs by PI/FITC analysis (reference value: 1.12%); assay type: functional
U-251 [32] = test: Cell cycle arrest in human U-251 cells assessed as G0/G1 phase at 500 nM measured after 24 hrs by propidium iodide staining based flow cytometry analysis (reference value: 67.34%); assay type: functional
A549 [33] = test: Induction of apoptosis in human A549 cells assessed as increase in early apoptotic cells at 500 nM measured after 24 hrs by PI/FITC analysis (reference value: 0.955%); assay type: functional
A549 [34] = test: Cell cycle arrest in human A549 cells assessed as G0/G1 phase at 500 nM incubated for 24 hrs by propidium iodide staining based flow cytometry analysis (reference value: 79.14%); assay type: functional

## COc1cc(-c2cccc3nc(-c4ccc5cc[nH]c5c4)oc23)cc(OC)c1OC
U-251 [1]
  Activity: 13.54%
U-251 [2]
  Activity: 15.8%
MCF7
  IC50: > 25000 nM
A549 [3]
  Activity: 70.7%
A549 [4]
  Activity: 61.33%
U-251 [5]
  Activity: 43.71%
U-251 [6]
  Activity: 37.97%
U-251 [7]
  Activity: 9.13%
A549 [8]
  Activity: 0.603%
Sus scrofa [9]
  inhibition: 86%
U-251 [10]
  Activity: 2.01%
A549 [11]
  Activity: 15.4%
U-251 [12]
  Activity: 1.66%
U-251 [13]
  Activity: 83.1%
U-251 [14]
  Activity: 14.77%
U-251 [15]
  Activity: 77.4%
A549 [16]
  Activity: 0.85%
U-251 [17]
  Activity: 3.09%
U-251 [18]
  Activity: 6.95%
A549 [19]
  Activity: 86.9%
U-251 [20]
  Activity: 98%
Sus scrofa [21]
  inhibition: 40%
A549 [22]
  IC50: 55 nM
U-251 [23]
  Activity: 20.98%
U-251 [24]
  Activity: 71.69%
[25]
  IC50: 1250 nM
A549 [26]
  Activity: 55.78%
Tubulin (Homo sapiens)
  inhibition: Active
A549 [27]
  Activity: Dose-Dependent Effect
A549 [28]
  Activity: 24.79%
NCI-H460
  IC50: 24 nM
U-251 [29]
  Activity: 18.32%
A549 [30]
  Activity: 19.43%
U-251 [31]
  Activity: 5.18%
U-251 [32]
  Activity: 34.64%
A549 [33]
  Activity: 11.1%
A549 [34]
  Activity: 3.89%
